Measured values reported in EP0767778B1, “1-PHENOXY-3-N-ALKYLAMINOPROPAN-2-OL HALOGEN DERIVATIVES USEFUL AS MYOCARDIAL beta [sequence] RECEPTOR MARKERS AND AS beta-BLOCKING AGENTS” (CIS BIO INTERNATIONAL, priority 1994, dated 1996).

Columns and labels:
[1] = octanol-water partition coefficient at room temperature; assay type: physicochemical; conditions: pH 7
[2] = biodistribution study in the mouse (Example 22); assay type: in vivo, souris; conditions: souris swiss femelles, injection intraveineuse
Description: L'étude de la biodistribution des radioligands chez la souris, permet d'apprécier l'intensité relative de la fixation cardiaque de la molécule et son évolution dans le temps.
Après marquage à l'iode 123 et purification par CLHP 20µCi environ de produit sont mis en solution dans 5 ml d'une solution : éthanol 20%-sérum physiologique 80%. Après injection intraveineuse de 25 µl de cette solution dans la queue de souris vigiles (souris swiss femelles de 20 à 25 g), celles-ci (5 à chaque fois) sont sacrifiées à différents temps après l'injection. On mesure pour chaque souris les activités cardiaques, hépatique, rénale et pulmonaire. Les résultats sont exprimés en pourcentage de la dose injectée par gramme d'organe.
Le CGP12177 étant la référence, un lot de souris a été étudié après injection de CGP 12177 marqué au tritium.

[3] = tested on: récepteurs β adrénergiques; assay: isolated perfused rat heart (Langendorff), antagonism of isoprenaline on dP/dt max; conditions: for DP/dt max: n=6
Description: Dans cet exemple, on teste la propriété pharmacologique antagoniste du composé 6 vis-à-vis des récepteurs β adrénergiques.
L'expérience est conduite sur coeur de rat isolé et perfusé selon la technique de Langendorff.
Après une préperfusion de 25 minutes avec une solution de Krebs-Henseleit, le coeur est perfusé avec de l'isoprénaline à la concentration de 10^-8M pendant 10 minutes; puis avec une solution d'isoprénaline à 10^-8M associée à la molécule à tester à la concentration de 10^-6M.
Si la molécule à tester diminue la dP/dt max en présence d'isoprénaline, on pourra affirmer que cette molécule se comporte comme un antagoniste de l'isoprénaline vis-à-vis des récepteurs β adrénergiques.

[4] = Isoprénaline + molécule (10^e+8 min), isoprénaline 10^-8M, test molecule 10^-6M

Row | Compound | Coefficient de partage octanol-eau à pH 7 [1] | Biodistribution Foie ([2]; 2') | Biodistribution Rein ([2]; 2') | Biodistribution Foie ([2]; 5') | Biodistribution Rein ([2]; 5') | Biodistribution Foie ([2]; 10') | Biodistribution Rein ([2]; 10') | Biodistribution Coeur ([2]; 15") | Biodistribution Foie ([2]; 15") | Biodistribution Poumon ([2]; 15") | Biodistribution Rein ([2]; 15") | Biodistribution Coeur ([2]; 15') | Biodistribution Foie ([2]; 15') | Biodistribution Poumon ([2]; 15') | Biodistribution Rein ([2]; 15') | Biodistribution Coeur ([2]; 2 min.) | Biodistribution Poumon ([2]; 2 min.) | Biodistribution Coeur ([2]; 5 min.) | Biodistribution Poumon ([2]; 5 min.) | Biodistribution Coeur ([2]; 10 min.) | further results
1 | CC(C)NCC(O)COc1ccc(OCOCC=CI)cc1 (racemic) [composé 10, 1-[4-(5-iodo-2-oxapent-4-ényloxy)phénoxy]3-isopropylaminopropan-2-ol] | 13,2 | 7,2 ± 1,1 pourcentage de la dose injectée par gramme d'organe | 14,8 ± 1 pourcentage de la dose injectée par gramme d'organe | 10,2 ± 1,1 pourcentage de la dose injectée par gramme d'organe | 14 ± 1,1 pourcentage de la dose injectée par gramme d'organe | 6,3 ± 3,3 pourcentage de la dose injectée par gramme d'organe | 10,7 ± 1,1 pourcentage de la dose injectée par gramme d'organe | 28,4 ± 3,6 pourcentage de la dose injectée par gramme d'organe | 1,7 ± 0,8 pourcentage de la dose injectée par gramme d'organe | 144,52 pourcentage de la dose injectée par gramme d'organe | 11,4 ± 5,1 pourcentage de la dose injectée par gramme d'organe | 3,9 ± 0,2 pourcentage de la dose injectée par gramme d'organe | 9 ± 0,2 pourcentage de la dose injectée par gramme d'organe | 2,3 ± 7 pourcentage de la dose injectée par gramme d'organe | 9,1 ± 0,4 pourcentage de la dose injectée par gramme d'organe | 15 ± 1,5 pourcentage de la dose injectée par gramme d'organe | 60 ± 10 pourcentage de la dose injectée par gramme d'organe | 9,5 ± 2,3 pourcentage de la dose injectée par gramme d'organe | 58 ± 4 pourcentage de la dose injectée par gramme d'organe | 5,3 ± 0,15 pourcentage de la dose injectée par gramme d'organe | Biodistribution Coeur ([2]; 30'): 3,1 ± 0,15 pourcentage de la dose injectée par gramme d'organe; Biodistribution Foie ([2]; 30'): 7,2 ± 0,8 pourcentage de la dose injectée par gramme d'organe; Biodistribution Poumon ([2]; 30'): 22 ± 4 pourcentage de la dose injectée par gramme d'organe; Biodistribution Rein ([2]; 30'): 7,6 ± 0,2 pourcentage de la dose injectée par gramme d'organe; Biodistribution Poumon ([2]; 10 min.): 33 ± 14 pourcentage de la dose injectée par gramme d'organe
2 | 1-{4-[2-(2-iodoéthoxy) éthoxy]phénoxy}-3-isopropyl-aminopropan-2-ol [composé 16] | 6,7 | 3,6 ± 0,5 pourcentage de la dose injectée par gramme d'organe | 16,4 ± 3,6 pourcentage de la dose injectée par gramme d'organe | 7,2 ± 1,6 pourcentage de la dose injectée par gramme d'organe | 19,5 ± 5 pourcentage de la dose injectée par gramme d'organe | 7,8 ± 1,6 pourcentage de la dose injectée par gramme d'organe | 15,4 ± 2 pourcentage de la dose injectée par gramme d'organe | 20,4 ± 3,8 pourcentage de la dose injectée par gramme d'organe | 1,5 ± 0,8 pourcentage de la dose injectée par gramme d'organe | 112 ± 37 pourcentage de la dose injectée par gramme d'organe | 4 ± 2,6 pourcentage de la dose injectée par gramme d'organe | 3,6 ± 0,4 pourcentage de la dose injectée par gramme d'organe | 7,9 ± 0,5 pourcentage de la dose injectée par gramme d'organe | 29,6 ± 4 pourcentage de la dose injectée par gramme d'organe | 14 ± 2,6 pourcentage de la dose injectée par gramme d'organe | 13 ± 1,3 pourcentage de la dose injectée par gramme d'organe | 73,3 ± 10 pourcentage de la dose injectée par gramme d'organe | 7 ± 0,7 pourcentage de la dose injectée par gramme d'organe | 52,7 ± 4 pourcentage de la dose injectée par gramme d'organe | 4,1 ± 0,4 pourcentage de la dose injectée par gramme d'organe | Biodistribution Poumon ([2]; 10 min.): 38,9 ± 5,3 pourcentage de la dose injectée par gramme d'organe
3 | CC(C)NCC(O)COc1cccc2ccccc12 (stereo not drawn) [propranolol] | – | – | – | – | – | – | – | – | – | – | – | – | – | – | – | – | – | – | – | – | DP/dt max [3, 4]: 814±240 mmHg/min; effect on the action of isoprénaline on dP/dt max ([3]; isoprénaline 10^-8M + molecule 10^-6M): revient à la valeur basale
4 | CC(C)NCC(O)c1ccc(O)c(O)c1 (stereo not drawn) [Isoprenaline] | – | – | – | – | – | – | – | – | – | – | – | – | – | – | – | – | – | – | – | – | DP/dt max ([3]; Isoprénaline (10^e min), isoprénaline 10^-8M alone): 2535±1233 mmHg/min; DP/dt max [3, 4]: 2398±1088 mmHg/min; augmentation de la dP/dt max par rapport à la préperfusion ([3]; isoprénaline seule 10^-8M): 254%
